From US20250152723A1, “ANTIBODY-DRUG CONJUGATES INVOLVING ERIANIN AND THE FABRICATION METHODS AND APPLICATIONS THEREOF” (Laboratory for Synthetic Chemistry and Chemical Biology …, priority 2023, published 2025)

Columns and labels:
[1] = tested on: SK-OV-3 ovarian cancer cell (HER2+); assay: In vitro anti-proliferative study (NBB staining, 6 days); format: cell-based, human; details: SK-OV-3 (HER2+), 6 days incubation, mean±SD
Description: (§1) Briefly, Different cell lines (1×10^3 cells/well) are seeded in a microtiter plate (96 well) and incubated overnight before the treatment. […] After the media is removed, the cells are fixed with formaldehyde (3%; 50 μL) in PBS and stained with NBB reagent (0.05%, 0.1 M sodium acetate, 9% acetic acid; 50 μL) for overnight. The stained cells in each well are washed thrice gently with deionized water and solubilized in sodium hydroxide solution (50 mM; 100 μL). The cell viability is determined by measuring the absorbance of 620 nm in each well by microplate reader. The experiments are repeated in triplicate. The IC50 values are presented as the mean±standard deviation.

[2] = tested on: MCF-10A breast epithelial cell (HER2−); assay: as above; format: cell-based; details: MCF-10A (HER2−), 6 days incubation, mean±SD
Description: as §1

[3] = tested on: MDA-MB-231 breast cancer cell (HER2−); assay: as above; format: cell-based; details: MDA-MB-231 (HER2−), 6 days incubation, mean±SD
Description: as §1

[4] = tested on: SK-BR-3 breast cancer cell (HER2+); assay: as above; format: cell-based; details: SK-BR-3 (HER2+), 6 days incubation, mean±SD
Description: as §1

[5] = tested on: HER2-positive SK-OV-3 human ovarian cancer xenograft; assay: Antitumor activity in SK-OV-3 xenograft model; format: in vivo, Female BALB/cAnN-nu (nude) mice; details: 50 mg/kg intravenous, four doses (day 0, 4, 8, 12), compared to vehicle control
Description: Female BALB/cAnN-nu (nude) mice (5-8 weeks old) are housed in the Laboratory Animal Unit, The University of Hong Kong. The mice are freely access to food and water. SKOV-3 ovarian cancer cells (1×10^7) in PBS (100 μL) are injected into the right flanks of each mouse subcutaneously. […] The mice are treated with intravenous administration of a total of four doses on day 0, 4, 8 and 12. The tumor size and body weight are monitored during the treatment. After 28 days, the mice are sacrificed and the tumor weight is measured.

Compound: COc1ccc(CCc2cc(OC)c(OC)c(OC)c2)cc1O [Erianin, erianin]
- IC50 [1]: 21.4 ± 0.3 nM
- IC50 [2]: 25.7 ± 0.2 nM
- IC50 [3]: 21.6 ± 0.2 nM
- IC50 [4]: 24.1 ± 0.1 nM
- tumor growth suppression [5]: no effect
